Patent US20020151712A1, “3-pyrrolidinyloxy-3'-pyridyl ether compounds useful for controlling chemical synaptic transmission” (priority 1999, published 2002)
Structures can show the parent of a compound that is named as a salt.

System: not given
Test: not given
Conditions: not given

melting point | Compound
60 °C (dec.) | Cl.c1ccc(-c2cncc(O[C@H]3CCNC3)c2)cc1 [Example 15, 3-(3-(S)-Pyrrolidinyloxy)-5-phenylpyridine hydrochloride]
180 °C (dec.) | CN1CC[C@H](Oc2cnc(Cl)c(Br)c2)C1.Cl [Example 23, 3-(1-N-Methyl-3-(S)-pyrrolidinyloxy)-5-bromo-6-chloropyridine hydrochloride]
66 to 68 °C | CCCCCCC#Cc1cncc(O[C@H]2CCNC2)c1.Cl [Example 8, 3-(3-(S)-pyrrolidinyloxy)-5-(1-octynyl)pyridine hydrochloride]
60 to 62 °C | Cl.c1ncc(-c2cncc(O[C@H]3CCNC3)c2)cn1 [Example 11, 3-(3-(S)-pyrrolidinyloxy)-5-(5-pyrimidyl)pyridine hydrochloride]
60 °C (dec.) | Cl.c1ccc(-c2cncc(O[C@@H]3CCNC3)c2)cc1 [Example 17, 3-(3-(R)-Pyrrolidinyloxy)-5-phenylpyridine hydrochloride]
75 to 77 °C | CN1CCC(COc2ccc(Cl)nc2)C1 (stereo not drawn) (as salt: toluenesulfonate) [Example 32, 2-Chloro-5-(1-methylpyrrolidinyl-3-methoxy)pyridine p-toluenesulfonate]
106 to 108 °C | CN1CC[C@H](Oc2cnc(Cl)c(C=Cc3ccncc3)c2)C1.Cl
201 to 203 °C | c1csc(-c2cncc(O[C@@H]3CCNC3)c2)c1 (as salt: hydrochloride) [Example 19, 3-(3-(R)-Pyrrolidinyloxy)-5-thienylpyridine hydrochloride]
121 to 122 °C | Fc1ccc(OC2CCCCNC2)cn1 (stereo not drawn) (as salt: hydrochloride) [Example 30, 3-(6-Fluoropyridinyl-3-oxy)perhydroazepine hydrochloride]
65 °C (dec.) | Cl.Clc1ccc(-c2cncc(O[C@H]3CCNC3)c2)cc1 [Example 21, 3-(3-(S)-Pyrrolidinyloxy)-5-(4-chlorophenyl)pyridine hydrochloride]
67 to 69 °C | Cl.c1ncc(-c2cncc(O[C@@H]3CCNC3)c2)cn1 [Example 13, 3-(3-(R)-Pyrrolidinyloxy)-5-(5-pyrimidinyl)pyridine hydrochloride]
133 to 135 °C | CCCCCCC#Cc1cncc(O[C@@H]2CCN(C)C2)c1.Cl [Example 10, 3-(1-N-Methyl-3-(R)-pyrrolidinyloxy)-5-(1-octynyl)pyridine hydrochloride]
88 to 90 °C | CN1CC[C@H](Oc2cncc(-c3ccccc3)c2)C1.Cl [Example 16, 3-(1-Methyl-3-(S)-pyrrolidinyloxy)-5-phenylpyridine hydrochloride]
178 to 180 °C | Cl.Clc1ncc(O[C@H]2CCNC2)cc1Br [Example 22, 3-(3-(S)-Pyrrolidinyloxy)-5-bromo-6-chloropyridine hydrochloride]
82 to 84 °C | Clc1cc(OCC2CCNC2)cnc1Cl (stereo not drawn) (as salt: toluenesulfonate) [Example 33, 2,3-Dichloro-5-(pyrrolidinyl-3-methoxy)pyridine p-toluenesulfonate]
88 to 90 °C | CN1CC[C@@H](Oc2cncc(C=Cc3ccncc3)c2)C1.Cl [Example 5, 3-(1-Methyl-3-(R)-pyrrolidinyloxy)-5-(2-(4-pyridyl)ethenyl)pyridine hydrochloride]
208 °C (dec.) | Cl.Nc1cccc(-c2cncc(O[C@H]3CCNC3)c2)c1 [Example 14, 3-(3-(S)-Pyrrolidinyloxy)-5-(3-aminophenyl)pyridine hydrochloride]

Compound | melting point
CC(C)(C)C=CC=Cc1cncc(O[C@H]2CCNC2)c1 (as salt: hydrochloride) [Example 7, 3-(3-(S)-Pyrrolidinyloxy-5-(5,5-dimethylhexadienyl)pyridine hydrochloride] | 148 °C (dec.)
Clc1ncc(OCC2CCNC2)cc1Br (stereo not drawn) (as salt: toluenesulfonate) [Example 25, 3-Bromo-2-chloro-5-(3-pyrrolidinylmethoxy)pyridine toluenesulfonate] | 105 to 107 °C

Target: neuronal nicotinic acetylcholine receptors (Rattus norvegicus, UniProt P09483+P12390)
Test: [3H]-cytisine binding to neuronal nicotinic acetylcholine receptors, crude synaptic membranes from whole rat brain
Conditions: [3H]-CYT 1.25 nM, 60 minutes at 4° C., Ki from IC50 by Cheng and Prusoff correction
Protocol: The in vitro protocols for determination of nicotinic acetylcholine channel receptor binding potencies of ligands was determined as follows.
Binding of [^3H]-cytisine ([^3H]-CYT) to neuronal nicotinic acetylcholine receptors was accomplished using crude synaptic membrane preparations from whole rat brain (Pabreza et al., Molecular Pharmacol., 1990, v. 39, p. 9). Washed membranes were stored at −80° C. prior to use. Frozen aliquots were slowly thawed and resuspended in 20 volumes of buffer (containing: 120 mM NaCl, 5 mM KCl, 2 mM MgCl2, 2 mM CaCl2 and 50 mM Tris-Cl, pH 7.4 at 4° C.). After centrifuging at 20,000×g for 15 minutes, the pellets were resuspended in 30 volumes of buffer.
The test compounds were dissolved in water to make 10 mM stock solutions. […]
Homogenate (containing 125-150 μg protein) was added to triplicate tubes containing the range of concentrations of test compound described above and [^3H]-CYT (1.25 nM) in a final volume of 500 μl. […] The filters are counted in 4 mL of Ecolume® (ICN). Nonspecific binding was determined in the presence of 10 μM (−)-nicotine and values were expressed as a percentage of total binding. IC50 values were determined with a four-parameter non-linear regression and IC50 values were converted to Ki values using the Cheng and Prusoff correction (Ki=IC50/(1+[ligand]/Kd of ligand).

Sequence of neuronal nicotinic acetylcholine receptors (P09483 31-630): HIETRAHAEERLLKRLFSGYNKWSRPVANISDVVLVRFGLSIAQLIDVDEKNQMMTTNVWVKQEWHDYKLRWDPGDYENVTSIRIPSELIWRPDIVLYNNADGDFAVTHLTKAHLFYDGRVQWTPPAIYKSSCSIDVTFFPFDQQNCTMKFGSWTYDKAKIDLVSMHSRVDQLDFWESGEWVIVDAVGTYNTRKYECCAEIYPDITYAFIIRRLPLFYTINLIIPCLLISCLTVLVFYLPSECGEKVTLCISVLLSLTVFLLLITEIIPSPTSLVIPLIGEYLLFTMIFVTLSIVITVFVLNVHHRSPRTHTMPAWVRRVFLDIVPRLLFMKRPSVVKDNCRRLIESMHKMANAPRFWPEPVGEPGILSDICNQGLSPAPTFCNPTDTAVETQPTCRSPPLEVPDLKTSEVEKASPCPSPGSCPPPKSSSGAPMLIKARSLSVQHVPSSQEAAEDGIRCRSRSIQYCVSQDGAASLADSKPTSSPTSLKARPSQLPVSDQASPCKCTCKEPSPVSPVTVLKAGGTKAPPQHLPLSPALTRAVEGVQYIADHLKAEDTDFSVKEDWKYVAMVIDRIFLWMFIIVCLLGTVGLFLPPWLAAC
Sequence of neuronal nicotinic acetylcholine receptors (P12390 25-500): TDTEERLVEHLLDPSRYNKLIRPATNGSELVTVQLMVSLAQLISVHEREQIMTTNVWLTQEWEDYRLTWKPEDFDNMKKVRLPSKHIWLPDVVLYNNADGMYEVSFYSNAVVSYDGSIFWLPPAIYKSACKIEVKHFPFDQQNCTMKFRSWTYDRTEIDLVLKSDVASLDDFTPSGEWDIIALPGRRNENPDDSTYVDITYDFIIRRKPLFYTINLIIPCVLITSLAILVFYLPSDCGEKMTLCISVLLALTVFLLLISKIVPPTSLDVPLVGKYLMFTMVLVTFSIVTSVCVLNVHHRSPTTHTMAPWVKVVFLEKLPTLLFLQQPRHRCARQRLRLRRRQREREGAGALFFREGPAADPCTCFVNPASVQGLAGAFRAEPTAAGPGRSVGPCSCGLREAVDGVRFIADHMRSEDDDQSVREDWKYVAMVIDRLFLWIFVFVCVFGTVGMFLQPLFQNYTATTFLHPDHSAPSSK

Compound | Ki [nM]
Clc1ncc(OC[C@@H]2CCNC2)cc1Br [Example 35, 3-Bromo-2-chloro-5-(3-(R)-pyrrolidinylmethoxy)pyridine 4-methyl benzenesulfonate] | 0.021

System: mice
Test: mouse hot plate paradigm (analgesia)
Type: in vivo
Conditions: mouse hot plate 55° C., intraperitoneal, dosed 30 minutes prior to testing, increase in tenth jump latency relative to control
Protocol: An in vivo protocol was utilized to determine the effectiveness of nicotinic acetylcholine receptor ligands as analgesic agents in the mouse hot plate paradigm. Separate groups of mice, (n=8/group) were utilized for each dose group. All drugs were administered by the intraperitoneal route of administration. Test drugs were dissolved in water to make a 6.2 mM stock solution. Animals were dosed with this solution (10 mL/kg body weight) for a 62 micromol/kg dose. Lower doses were administered similarly, following serial dilution of the stock solution in half-log increments. Animals were dosed 30 minutes prior to testing in the hot plate. The hot-plate utilized was an automated analgesia monitor (Model #AHP16AN, Omnitech Electronics, Inc. of Columbus, Ohio). The temperature of the hot plate was maintained at 55° C. and a cut-off time of 180 seconds was utilized. Latency until the tenth jump was recorded as the dependent measure. An increase in the tenth jump latency relative to the control was considered an effect.

Compound | minimally effective dose (MED), Dosage [µmol/kg]
Clc1ncc(OCC2CCNC2)cc1Br (stereo not drawn) [Example 25, 3-Bromo-2-chloro-5-(3-pyrrolidinylmethoxy)pyridine toluenesulfonate] | 6.2
CN1CCC(COc2cnc(Cl)c(Br)c2)C1 (stereo not drawn) [Example 26, 3-Bromo-2-chloro-5-(1-methyl-3-pyrrolidinylmethoxy) pyridine toluenesulfonate] | 62
Cc1ccc(S(=O)(=O)O)cc1.Cc1cncc(OCC2CCNC2)c1 (stereo not drawn) [Example 27, 5-methyl-3-(3-pyrrolidinylmethoxy)pyridine tosylate] | 19
Cc1ccc(OC2CCCCNC2)cn1 (stereo not drawn) [Example 29, 3-(6-Methylpyridinyl-3-oxy)perhydroazepine dihydrochloride] | 62
